This is an account of results in patent publication US8436043B2 (Takeda Pharmaceutical Company Limited, priority 2008, dated 2013).

T1 sequence (P47871 26-477): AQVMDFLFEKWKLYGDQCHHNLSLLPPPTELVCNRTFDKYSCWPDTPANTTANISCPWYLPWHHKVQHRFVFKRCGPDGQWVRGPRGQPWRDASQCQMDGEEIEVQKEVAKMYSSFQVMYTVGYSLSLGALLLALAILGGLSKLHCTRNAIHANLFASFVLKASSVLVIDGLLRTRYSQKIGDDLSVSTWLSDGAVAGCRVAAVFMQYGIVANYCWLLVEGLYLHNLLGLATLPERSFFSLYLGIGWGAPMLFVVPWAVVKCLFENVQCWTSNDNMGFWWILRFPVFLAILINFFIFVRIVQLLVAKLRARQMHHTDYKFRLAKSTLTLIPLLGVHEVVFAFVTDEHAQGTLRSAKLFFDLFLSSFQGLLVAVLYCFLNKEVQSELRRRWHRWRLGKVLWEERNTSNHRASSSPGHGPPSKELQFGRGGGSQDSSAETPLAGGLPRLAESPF

One assay addresses T1, human glucagon receptor (Homo sapiens, UniProt P47871).
T1 construct: made in house; host or cells: FreeStyle CHO cells, transient transfection with pMSRαneo/hGCGR; membrane fraction (35,000 rpm pellet)
Description: Glucagon binding inhibitory activity ([125I]-glucagon binding to glucagon receptor membrane protein). The note with it: human glucagon receptor membrane protein, [125I]-glucagon, 90 min room temperature. In outline: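 Receptor source was a membrane fraction of transiently transfected CHO cells bearing human receptor; 90 min room-temperature binding, filtration harvest, scintillation counting.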
The compound `Cc1c(C(Nc2ccc(C(=O)NCCC(=O)O)cc2)C2CCCCC2)oc2ccccc12` (centres unmarked) [Example A17, 3-{[(4-{[cyclohexyl(3-methyl-1-benzofuran-2-yl)methyl]amino}phenyl)carbonyl]amino}propanoic acid] showed an IC50 of 230 nM. This counts as sub-micromolar.

Staying with this assay, now noted: test compound 10 μM; 0.4% DMSO = 0%, non-labeled glucagon 1 μM = 100%.
For the compound `COc1ccc2oc(C(Nc3ccc(C(=O)N(C)CCC(=O)O)cc3)C3CCCCC3)c(C)c2c1` (centres unmarked) [Example A43, 3-{[(4-{[cyclohexyl(5-methoxy-3-methyl-1-benzofuran-2-yl)methyl]amino}phenyl)carbonyl](methyl)amino}propanoic acid], the “inhibitory rate (%) at 10 μM” value came to 80%.
In the case of `COc1ccc2oc(C(Nc3ccc(C(=O)N(C)CCC(=O)O)cc3)C3CCCCC3)c(C)c2c1` (centres unmarked) [Example A44, 3-{[(4-{[cyclohexyl(5-methoxy-3-methyl-1-benzofuran-2-yl)methyl]amino}phenyl)carbonyl](methyl)amino}propanoic acid], the “inhibitory rate (%) at 10 μM” value stood at 82%.
The same measure, in the same setting: the value for `Cc1c(C(Nc2ccc(C(=O)N(C)CCC(=O)O)cc2)C2CCCCC2)oc2ccc(F)cc12` (centres unmarked) [Example A46, 3-{[(4-{[cyclohexyl(5-fluoro-3-methyl-1-benzofuran-2-yl)methyl]amino}phenyl)carbonyl](methyl)amino}propanoic acid] was 78%.
Same read-out and setting: the same measure for `Cc1c(C(Nc2ccc(C(=O)N(C)CCC(=O)O)cn2)C2CCCCC2)oc2ccc(F)cc12` (centres unmarked) [Example A54, 3-{[(6-{[cyclohexyl(5-fluoro-3-methyl-1-benzofuran-2-yl)methyl]amino}pyridin-3-yl)carbonyl](methyl)amino}propanoic acid]: 52%.

The assay is the same for the next values; noted with them: test compound 10 μM; 0.4% DMSO = 0%, non-labeled glucagon 1 μM = 100%; read-out: inhibitory rate (%) at 10 μM.
Consider `Cc1c(C(Nc2ccc(C(=O)N(C)CCC(=O)O)cc2)C2CCCCC2)oc2ccccc12` (centres unmarked) [Example A16, 3-{[(4-{[cyclohexyl(3-methyl-1-benzofuran-2-yl)methyl]amino}phenyl)carbonyl](methyl)amino}propanoic acid], for which the inhibition at 10 µM stood at 74%.
On the same count and under the same terms, the value for `Cc1c(C(Nc2ccc(C(=O)NCCC(=O)O)cc2)C2CCCCC2)oc2ccccc12` (centres unmarked) [Example A17, 3-{[(4-{[cyclohexyl(3-methyl-1-benzofuran-2-yl)methyl]amino}phenyl)carbonyl]amino}propanoic acid] was 72%.
On to `O=C(O)CCNC(=O)c1ccc(NC(c2nn(C3CCCCC3)c3ccccc23)C2CCCCC2)cc1` (centres unmarked) [Example A19, 3-{[(4-{[cyclohexyl(1-cyclohexyl-1H-indazol-3-yl)methyl]amino}phenyl)carbonyl]amino}propanoic acid], for which the inhibition at 10 µM came out at 71%.
With `COc1cccc2cc(C(Nc3ccc(C(=O)NCCC(=O)O)cc3)C3CCCCC3)oc12` (centres unmarked) [Example A20, 3-{[(4-{[cyclohexyl(7-methoxy-1-benzofuran-2-yl)methyl]amino}phenyl)carbonyl]amino}propanoic acid], the inhibition at 10 µM stood at 72%.
Same read-out and setting: the same measure for `COc1cccc2cc(C(Nc3ccc(C(=O)N(C)CCC(=O)O)cc3)C3CCCCC3)oc12` (centres unmarked) [Example A21, 3-{[(4-{[cyclohexyl(7-methoxy-1-benzofuran-2-yl)methyl]amino}phenyl)carbonyl](methyl)amino}propanoic acid]: 62%.
Same read-out and setting: the same measure for `COc1ccc2oc(C(Nc3ccc(C(=O)NCCC(=O)O)cc3)C3CCCCC3)cc2c1` (centres unmarked) [Example A22, 3-{[(4-{[cyclohexyl(5-methoxy-1-benzofuran-2-yl)methyl]amino}phenyl)carbonyl]amino}propanoic acid]: 66%.
On the same count and under the same terms, the value for `Cc1c(C(CC(C)C)Nc2ccc(C(=O)NCCC(=O)O)cc2)oc2ccccc12` (centres unmarked) [Example A23, 3-{[(4-{[3-methyl-1-(3-methyl-1-benzofuran-2-yl)butyl]amino}phenyl)carbonyl]amino}propanoic acid] was 77%; that for `Cc1c(C(CC(C)C)Nc2ccc(C(=O)N(C)CCC(=O)O)cc2)oc2ccccc12` (centres unmarked) [Example A24, 3-{methyl[(4-{[3-methyl-1-(3-methyl-1-benzofuran-2-yl)butyl]amino}phenyl)carbonyl]amino}propanoic acid] was 70%.
For `COc1ccc2oc(C(Nc3ccc(C(=O)N(C)CCC(=O)O)cc3)C3CCCCC3)cc2c1` (centres unmarked) [Example A25, 3-{[(4-{[cyclohexyl(5-methoxy-1-benzofuran-2-yl)methyl]amino}phenyl)carbonyl](methyl)amino}propanoic acid], the inhibition at 10 µM stood at 60%.
Take `CCc1oc2ccccc2c1C(Nc1ccc(C(=O)N(C)CCC(=O)O)cc1)C1CCCCC1` (centres unmarked) [Example A26, 3-{[(4-{[cyclohexyl(2-ethyl-1-benzofuran-3-yl)methyl]amino}phenyl)carbonyl](methyl)amino}propanoic acid]: the inhibition at 10 µM is 64%.
`COc1ccc2oc(C(Nc3ccc(C(=O)N(C)CCC(=O)O)cc3)C3CCCCC3)c(C)c2c1` (centres unmarked) [Example A27, 3-{[(4-{[cyclohexyl(5-methoxy-3-methyl-1-benzofuran-2-yl)methyl]amino}phenyl)carbonyl](methyl)amino}propanoic acid]: the inhibition at 10 µM was 80%.
With `COc1ccc2cc(C(Nc3ccc(C(=O)N(C)CCC(=O)O)cc3)C3CCCCC3)oc2c1` (centres unmarked) [Example A28, 3-{[(4-{[cyclohexyl(6-methoxy-1-benzofuran-2-yl)methyl]amino}phenyl)carbonyl](methyl)amino}propanoic acid], the inhibition at 10 µM was determined as 62%.
Still for that read-out and setting: the same measure for `CCc1oc2ccccc2c1C(Nc1ccc(C(=O)NCCC(=O)O)cc1)C1CCCCC1` (centres unmarked) [Example A29, 3-{[(4-{[cyclohexyl(2-ethyl-1-benzofuran-3-yl)methyl]amino}phenyl)carbonyl]amino}propanoic acid]: 77%.
Still for that read-out and setting: the value for `COc1ccc2oc(C(Nc3ccc(C(=O)NCCC(=O)O)cc3)C3CCCCC3)c(C)c2c1` (centres unmarked) [Example A30, 3-{[(4-{[cyclohexyl(5-methoxy-3-methyl-1-benzofuran-2-yl)methyl]amino}phenyl)carbonyl]amino}propanoic acid] was 76%; that for `CCc1c(C(CC(C)C)Nc2ccc(C(=O)N(C)CCC(=O)O)cc2)oc2ccccc12` (centres unmarked) [Example A31, 3-{[(4-{[1-(3-ethyl-1-benzofuran-2-yl)-3-methylbutyl]amino}phenyl)carbonyl](methyl)amino}propanoic acid] was 62%.
Still for that read-out and setting: the value for `Cc1c(C(CC(C)C)Nc2ccc(C(=O)N(C)CCC(=O)O)cc2)sc2ccccc12` (centres unmarked) [Example A32, 3-{methyl[(4-{[3-methyl-1-(3-methyl-1-benzothiophen-2-yl)butyl]amino}phenyl)carbonyl]amino}propanoic acid] was 72%; that for `Cc1c(C(CC(C)C)Nc2ccc(C(=O)NCCC(=O)O)cc2)sc2ccccc12` (centres unmarked) [Example A33, 3-{[(4-{[3-methyl-1-(3-methyl-1-benzothiophen-2-yl)butyl]amino}phenyl)carbonyl]amino}propanoic acid] was 76%.
For `CCc1c(C(CC(C)C)Nc2ccc(C(=O)NCCC(=O)O)cc2)oc2ccccc12` (centres unmarked) [Example A34, 3-{[(4-{[1-(3-ethyl-1-benzofuran-2-yl)-3-methylbutyl]amino}phenyl)carbonyl]amino}propanoic acid], the inhibition at 10 µM was 75%.
Take `COc1ccc2cc(C(Nc3ccc(C(=O)NCCC(=O)O)cc3)C3CCCCC3)oc2c1` (centres unmarked) [Example A35, 3-{[(4-{[cyclohexyl(6-methoxy-1-benzofuran-2-yl)methyl]amino}phenyl)carbonyl]amino}propanoic acid]: the inhibition at 10 µM came out at 71%.
`Cc1c(C(CC(C)C)Nc2ccc(C(=O)NCCC(=O)O)cn2)sc2ccccc12` (centres unmarked) [Example A36, 3-{[(6-{[3-methyl-1-(3-methyl-1-benzothiophen-2-yl)butyl]amino}pyridin-3-yl)carbonyl]amino}propanoic acid]: the inhibition at 10 µM was found to be 73%.
Turning to `Cc1c(C(Nc2ccc(C(=O)N(C)CCC(=O)O)cc2)C2CCCCC2)oc2ccc(F)cc12` (centres unmarked) [Example A37, 3-{[(4-{[cyclohexyl(5-fluoro-3-methyl-1-benzofuran-2-yl)methyl]amino}phenyl)carbonyl](methyl)amino}propanoic acid], the inhibition at 10 µM was 78%.
The same measure, in the same setting: the value for `Cc1c(C(CC(C)C)Nc2ccc(C(=O)N(C)CCC(=O)O)cn2)sc2ccccc12` (centres unmarked) [Example A38, 3-{methyl[(6-{[3-methyl-1-(3-methyl-1-benzothiophen-2-yl)butyl]amino}pyridin-3-yl)carbonyl]amino}propanoic acid] was 56%; that for `Cc1c(C(Nc2ccc(C(=O)NCCC(=O)O)cc2)C2CCCCC2)oc2ccc(F)cc12` (centres unmarked) [Example A39, 3-{[(4-{[cyclohexyl(5-fluoro-3-methyl-1-benzofuran-2-yl)methyl]amino}phenyl)carbonyl]amino}propanoic acid] was 78%.
Still for that read-out and setting: the value for `COCc1c(C(Nc2ccc(C(=O)NCCC(=O)O)cc2)C2CCCCC2)oc2ccc(F)cc12` (centres unmarked) [Example A47, 3-({[4-({cyclohexyl[5-fluoro-3-(methoxymethyl)-1-benzofuran-2-yl]methyl}amino)phenyl]carbonyl}amino)propanoic acid] was 67%.
For `COCc1c(C(Nc2ccc(C(=O)N(C)CCC(=O)O)cc2)C2CCCCC2)oc2ccc(F)cc12` (centres unmarked) [Example A48, 3-[{[4-({cyclohexyl[5-fluoro-3-(methoxymethyl)-1-benzofuran-2-yl]methyl}amino)phenyl]carbonyl}(methyl)amino]propanoic acid], the inhibition at 10 µM was found to be 66%.
Still for that read-out and setting: the same measure for `Cc1c(C(Nc2ccc(C(=O)NCCC(=O)O)cn2)C2CCCCC2)oc2ccc(F)cc12` (centres unmarked) [Example A51, 3-{[(6-{[cyclohexyl(5-fluoro-3-methyl-1-benzofuran-2-yl)methyl]amino}pyridin-3-yl)carbonyl]amino}propanoic acid]: 71%; for `Cc1c(C(Nc2ccc(C(=O)N(C)CCC(=O)O)cn2)C2CCCCC2)oc2ccc(F)cc12` (centres unmarked) [Example A52, 3-{[(6-{[cyclohexyl(5-fluoro-3-methyl-1-benzofuran-2-yl)methyl]amino}pyridin-3-yl)carbonyl](methyl)amino}propanoic acid]: 64%.
